What was measured:
[1] = molecular target: Delta-type opioid receptor (Mus musculus, UniProt P32300); assay: Antagonist activity against delta-opioid receptor in mouse vas deferens in the presence of DADLE; type: functional, tissue-based
[2] = molecular target: T1, Kappa-type opioid receptor (Cavia porcellus, UniProt P41144); assay: Antagonist activity against kappa-opioid receptor in guinea pig ileum in the presence of ethylketazocine; type: functional, tissue-based
Mu-type opioid receptor [3] = molecular target: T2, Mu-type opioid receptor (Cavia porcellus, UniProt P97266); assay: Antagonist activity against mu-opioid receptor in guinea pig ileum in the presence of morphine; type: functional, tissue-based
T2 sequence (P97266 whole entry): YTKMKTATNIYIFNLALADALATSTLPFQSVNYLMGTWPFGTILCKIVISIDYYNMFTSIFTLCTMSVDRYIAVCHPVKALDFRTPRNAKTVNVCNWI

[4] = molecular target: T1, Kappa-type opioid receptor; assay: Binding affinity against kappa-opioid receptor in guinea pig brain membranes; type: cell membranes, Membrane
Mu-type opioid receptor [5] = molecular target: T2, Mu-type opioid receptor; assay: Binding affinity against mu-opioid receptor in guinea pig brain membranes; type: cell membranes, Membrane

T1 sequence (P41144 whole entry): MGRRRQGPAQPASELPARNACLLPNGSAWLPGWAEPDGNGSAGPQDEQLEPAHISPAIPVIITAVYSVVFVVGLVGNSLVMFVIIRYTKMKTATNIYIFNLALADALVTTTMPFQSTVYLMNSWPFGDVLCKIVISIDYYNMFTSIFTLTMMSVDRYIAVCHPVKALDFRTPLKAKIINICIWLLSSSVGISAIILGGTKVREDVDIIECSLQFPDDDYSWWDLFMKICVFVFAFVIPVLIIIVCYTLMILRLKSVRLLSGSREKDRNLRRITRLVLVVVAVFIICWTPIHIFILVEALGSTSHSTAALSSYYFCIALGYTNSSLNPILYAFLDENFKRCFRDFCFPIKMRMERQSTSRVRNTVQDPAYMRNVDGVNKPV
Chain of Delta-type opioid receptor (P32300 whole entry): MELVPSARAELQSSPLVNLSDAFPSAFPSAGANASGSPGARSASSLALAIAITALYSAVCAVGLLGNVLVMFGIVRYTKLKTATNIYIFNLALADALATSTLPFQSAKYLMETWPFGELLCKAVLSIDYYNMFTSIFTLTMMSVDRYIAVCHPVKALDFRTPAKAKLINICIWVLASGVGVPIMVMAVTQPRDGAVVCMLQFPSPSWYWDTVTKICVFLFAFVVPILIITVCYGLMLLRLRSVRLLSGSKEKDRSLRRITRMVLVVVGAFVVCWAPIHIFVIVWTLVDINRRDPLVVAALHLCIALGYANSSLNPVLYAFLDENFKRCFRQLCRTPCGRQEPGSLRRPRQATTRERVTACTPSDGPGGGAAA

Structure (SMILES)	IC50 [1]	IC50 [2]	IC50 (Mu-type opioid receptor [3])	Ki [4]	Ki (Mu-type opioid receptor [5])
CN1CC[C@]23c4c5ccc(O)c4O[C@H]2Cc2c([nH]c4ccccc24)[C@H]3[C@H]1C5	1 µM	0.99 µM	0.92 µM		
Oc1ccc2c3c1O[C@H]1Cc4c([nH]c5ccccc45)[C@H]4[C@@H](C2)N(CC2CC2)CC[C@]314	8.2 µM			0.033 µM	0.0049 µM
Oc1ccc2c3c1O[C@H]1c4[nH]c5ccccc5c4C[C@@]4(O)[C@@H](C2)N(CC2CC2)CC[C@]314 [NALTRINDOLE]	459 µM	2 µM	11.2 µM		
